For this series, the system named is liver cells. As to the kind of experiment: Distribution ratio into fractions and efflux scoring of a fluorescent drug in cultured liver cells (Steps 0-6, plate reader). Format: in vitro ADME, rat. How it is done: In this step, liver cells are prepared and cultured for verifying an effect of a drug. An example will be shown below. The preparation of liver cells was made according to an in-situ collagenase perfusion method. The detail is as follows. A rat (5 to 6 weeks old) is subjected to laparotomy under pentobarbital anesthesia, and a catheter is inserted into the portal vein and a pre-perfusion fluid (Hanks' solution not containing Ca2+ and Mg2+ but containing EGTA) is injected.
Liver cells prepared by the in-situ collagenase perfusion method as described above are suspended in a medium, and the liver cells in the suspension at a density of 5×10^5 cells/mL are seeded on a commercially available collagen-coated culture dish, to conduct two dimensional plane culture (for example, sandwich culture). The seeding density, medium, culture plate 001 are not particularly limited.
After seeding, culture is started using a CO2 incubator under conditions of 5% CO2 and 37° C. After 18 hours or more elapse, a first medium exchange is performed. Although a medium used for culture from 18 hours after the seeding is not particularly limited, in this example, a medium obtained by excluding FCS from a medium (10% FCS+) to make a medium (herein after medium (FCS−)) and then adding matrigel thereto was used. After that, medium exchange is performed with the medium (FCS−) every 24 hours.
In this step, cells cultured in Step 0 are conditioned to a condition suitable for a drug assessment. An example will be shown below. The culture supernatant of cells cultured for 4 days in Step 0 is removed, […] of a Hanks' solution is added as a buffer, and then incubation is performed at 37° C. for 10 minutes (FIG. 2, Step 1).
In this step, a drug solution to be assessed is administered to cells. An example will be shown below. After removing the buffer, 200 μL of 10 μM CDF (fluorescent reagent) is added to a well, incubation is performed at 37° C. for 30 minutes, the well is then retained at 4° C. for 5 minutes (FIG. 2, Step 2). […]

The mark [1] stands for this setting: Pattern 1, drug incubated 37° C. 30 minutes, fluorescence measurement.

In the case of Rhodamine 123, under setting [1], the “ratio of the bile duct excretion drug amount relative to the whole drug amount taken in the cells (BiRD), (B1-B2)/(C1+C2)” value is on record as 4.92 and the “ratio of the drug amount discharged via a transporter relative to the blood-vessel-side discharge drug amount (RexEMTP), (B2-B3)/B2” value is 52.52. Further, the “sup fraction (first blood-vessel-side discharge fraction, S1)” value (Pattern 2: total sum of Steps 4, 5 and 6 taken as 100%, Step 4 Hanks' solution 37° C. 30 minutes, in %) is given as 39.29.
